Molecules are shown by their SMILES. Read-outs that look alike come from different tables or passages of the source.

We go through 16 compounds from patent US20230219911A1, “BENZOTHIAZOLE DERIVATIVES AND USES THEREOF” (SHENYANG PHARMACEUTICAL UNIVERSITY, priority 2020, published 2023).

The target of experiment [1] is T1, sEH enzyme (human recombinant) (Homo sapiens, UniProt P34913).
T1 construct: purchased Cayman Chemical
T1 sequence (P34913 1-555): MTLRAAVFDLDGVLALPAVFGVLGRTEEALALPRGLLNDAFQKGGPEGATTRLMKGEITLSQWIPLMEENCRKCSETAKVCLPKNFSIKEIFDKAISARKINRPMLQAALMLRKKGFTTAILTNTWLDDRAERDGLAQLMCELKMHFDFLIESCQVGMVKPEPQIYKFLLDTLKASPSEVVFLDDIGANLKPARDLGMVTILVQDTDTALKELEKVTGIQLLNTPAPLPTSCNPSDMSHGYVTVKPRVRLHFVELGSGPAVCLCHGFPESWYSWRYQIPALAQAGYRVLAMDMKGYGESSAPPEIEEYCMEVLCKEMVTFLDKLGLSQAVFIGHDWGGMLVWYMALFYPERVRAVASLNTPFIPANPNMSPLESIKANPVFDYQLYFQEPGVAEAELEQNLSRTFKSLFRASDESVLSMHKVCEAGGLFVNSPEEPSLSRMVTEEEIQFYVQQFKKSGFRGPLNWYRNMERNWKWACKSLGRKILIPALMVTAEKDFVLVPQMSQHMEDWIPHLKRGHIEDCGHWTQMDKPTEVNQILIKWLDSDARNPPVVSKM
Nature of the experiment: in vitro IC50 of soluble epoxide hydrolase (sEH) by fluorescence analysis. Format: biochemical. The procedure:
The benzothiazole skeleton compounds according to the above formula I of the present invention were tested for the in vitro sEH enzyme activity by fluorescence analysis. […] 12 μL of sEH enzyme (human recombinant, 0.5 mg/mL, Cayman Chemical) was diluted with 588 μL of buffer (25 mM bis-Tris, pH 7.0). […] The inhibitions at different concentrations for the compound were respectively measured in accordance with the inhibition assay, to calculate IC50.

Experiment [2] concerns the target T1, sEH enzyme (human recombinant). As to the kind of experiment: in vitro sEH enzyme activity by fluorescence analysis, single concentration inhibition. Type of experiment: biochemical. Particulars: compound 0.1 μM; human recombinant sEH; PHOME substrate; 37° C. 15 min; read-out: sEH % inhibition, @ 0.1 μM. The procedure: The benzothiazole skeleton compounds (concentration: 0.1 μM) according to the above formula I of the present invention were tested for the in vitro sEH enzyme activity by fluorescence analysis.
12 μL of sEH enzyme (human recombinant, 0.5 mg/mL, Cayman Chemical) was diluted with 588 μL of buffer (25 mM bis-Tris, pH 7.0). The fluorescent substrate was PHOME (cyano-(6-methoxy-naphthalen-2-yl)-methyl (3-phenyl-oxiranyl)-acetate) in DMSO (10 μM, Cayman Chemical). The compound to be tested was dissolved in 100% DMSO at a concentration of 4 μM. 185 μL of buffer (25 mM bis-Tris, pH 7.0), 5 μL of compound solution, and 5 μL of diluted sEH enzyme were added to the wells of a 96-well plate, and finally 5 μL of substrate solution was added to initiate the reaction. After incubating at 37° C. for 15 min, the fluorescence signal was measured with a microplate reader (excitation wavelength 330 nm, emission wavelength 465 nm).
Inhibition (%)=(F0−F1)/(F0)×100.

Experiment [3] relates to unilateral ureteral obstruction (UUO) C57BL/6J mice. Nature of the experiment: Measurement of anti-fibrosis effect, unilateral ureteral obstruction (UUO) model. Format: in vivo. As to conditions: intraperitoneal 30 mg·kg−1·d−1, 7 days after modeling. On the procedure:
Male C57BL/6J mice (6 to 8 weeks old) (SPF (Beijing) Biotechnology Co., Ltd.) were divided into 3 groups: sham group, unilateral ureteral obstruction (UUO) group, and UUO+Ex. 16 compound group. After the mice were anesthetized, the left ureter was ligated and cut to create a model. In the sham group, the ureter was only isolated without ligation. The experimental animals were administrated 72 hours before modeling, and the aqueous solution of Ex. 16 compound (10% PEG400, 10% Tween 80, concentration: 9 mg/mL) was intraperitoneally injected at a dose of 30 mg·kg^−1·d^−1; and the sham group and UUO group were intraperitoneally injected with an equal volume of blank solvent. 7 days after modeling, the animals were sacrificed, and samples were taken for testing.

Experiment [4] deals with carrageenan-induced paw swelling in KM mice. As to the kind of experiment: Measurement of anti-inflammatory effect, carrageenan-induced paw swelling. Format: in vivo. As to conditions: intraperitoneal injection 1 hour before carrageenan, FIG. 3. On the procedure:
1 hour in advance, the mice were intraperitoneally injected with the solutions of the compounds of Examples 12, 18, 27, and 40 (10% PEG 400, 10% Tween 80) or the blank solvent, respectively. Taking the initial paw thickness of the mice before modeling as 100%, the changes in the paw thickness of the mice were measured.

The mark [5] stands for this setting: human recombinant sEH, PHOME substrate, read-out: IC50.

As for `Nc1nc2ccc(NC(=O)Nc3ccc(Cl)cc3)cc2s1` [Example 1, 1-(2-aminobenzo[d]thiazol-6-yl)-3-(4-chlorophenyl)urea], in experiment [1], the IC50 stood at 4.8 nM. In addition, the inhibition at 0.1 µM in experiment [2] was 76.1%.
Taken in the same sequence, the figures for `Nc1nc2ccc(NC(=O)NC34C[C@H]5C[C@@H](C3)C[C@@H](C4)C5)cc2s1` [Example 4, 1-(2-aminobenzo[d]thiazol-6-yl)-3-[(3s,5s,7s)-adamantan-1-yl]urea] were 122 nM and 77.3%.
For `O=C(Nc1ccc(Cl)cc1)Nc1ccc2nc(NC(=O)Nc3ccc(Cl)cc3)sc2c1` [Example 7, 1,1′-(benzo[d]thiazol-2,6-diyl)bis[3-(4-chlorophenyl)urea]], the 50% inhibitory concentration (IC50) in experiment [1] (setting [5]) was found to be 9.2 nM. Moreover, the inhibition at 0.1 µM in experiment [2] is 59.9%.
Taken in the same sequence, the figures for `Nc1nc2ccc(N(CCN3CCOCC3)C(=O)Nc3ccc(C(F)(F)F)cc3)cc2s1` [Example 13, 1-(2-aminobenzo[d]thiazol-6-yl)-1-[2-(4-morpholinyl)ethyl]-3-(4-trifluoromethylphenyl)urea] were 2.8 nM and 63.9%.
For the compound `Nc1nc2ccc(N(CCN3CCOCC3)C(=O)Nc3ccc(F)c(Br)c3)cc2s1` [Example 16, 1-(2-aminobenzo[d]thiazol-6-yl)-1-[2-(4-morpholinyl)ethyl]-3-(3-bromo-4-fluorophenyl)urea], the IC50 in experiment [1] (setting [5]) was found to be 0.25 nM. Besides, the inhibition at 0.1 µM in experiment [2] amounted to 79.7%. For the same compound, the “level of EETs in mouse kidney tissue” value in experiment [3] (FIG. 1) is given as “maintain the level of EETs”. In addition, in experiment [3] (FIG. 2), the collagen deposition entry is recorded as “reduce the collagen deposition” and the fibrotic areas result is “decrease the fibrotic areas”.
For `CCc1ccc(NC(=O)N(CCN2CCOCC2)c2ccc3nc(N)sc3c2)cc1` [Example 18, 1-(2-aminobenzo[d]thiazol-6-yl)-1-[2-(4-morpholinyl)ethyl]-3-(4-ethylphenyl)urea], the half-inhibitory concentration (IC50) in experiment [1] was 6.7 nM. Moreover, in experiment [4], the “carrageenan-induced paw swelling (paw thickness)” value was “significantly inhibit” and the “effect on paw swelling compared with celecoxib” value is reported as “better than that of celecoxib”. Also, the inhibition at 0.1 µM in experiment [2] was 84.7%.
In the case of `CN(C)CCN(C(=O)Nc1ccc(Cl)cc1)c1ccc2nc(N)sc2c1` [Example 25, 1-(2-aminobenzo[d]thiazol-6-yl)-1-[2-(N,N-dimethylamino)ethyl]-3-(4-chlorophenyl)urea], the concentration for half-maximal inhibition (IC50) in experiment [1] (setting [5]) amounted to 27.1 nM. Also, in experiment [2], the inhibition at 0.1 µM was determined as 70.4%.
Turning to `O=C(Cc1ccccc1)Nc1nc2ccc(N(CCN3CCOCC3)C(=O)Nc3ccc(Cl)cc3)cc2s1` [Example 27, 1-(2-phenylacetamidobenzo[d]thiazol-6-yl)-1-[2-(4-morpholinyl)ethyl]-3-(4-chlorophenyl)urea], the half-inhibitory concentration (IC50) in experiment [1] is 0.02 nM. Further, in experiment [4], the “carrageenan-induced paw swelling (paw thickness)” value was “significantly inhibit” and the “effect on paw swelling compared with celecoxib” value is “better than that of celecoxib”. The inhibition at 0.1 µM in experiment [2] is 79.4%.
Turning to `CCOC(=O)CNc1nc2ccc(N(CCN3CCOCC3)C(=O)Nc3ccc(Cl)cc3)cc2s1` [Example 29], the IC50 in experiment [1] (setting [5]) was determined as 2.6 nM. Further, the inhibition at 0.1 µM in experiment [2] was 69%.
For `CC(=O)Nc1nc2ccc(N(CCN3CCOCC3)C(=O)Nc3ccc(Cl)cc3)cc2s1` [Example 30, 1-(2-acetamidobenzo[d]thiazol-6-yl)-1-[2-(4-morpholinyl)ethyl]-3-(4-chlorophenyl)urea], in that order: 1.9 nM and 27.5%.
As for `O=C(Nc1nc2cnc(N(CCN3CCOCC3)C(=O)Nc3ccc(OC(F)(F)F)cc3)cc2s1)C1CC1` [Example 42, 1-(2-cyclopropylformamidothiazo[4,5-c]pyridin-6-yl)-1-[2-(4-morpholinyl)ethyl]-3-(4-trifluoromethoxyphenyl)urea], the inhibition at 0.1 µM in experiment [2] stood at 52.1%.
Turning to `CCOC(=O)CNc1nc2cnc(N(CCN3CCOCC3)C(=O)Nc3ccc(OC(F)(F)F)cc3)cc2s1` [Example 43], in experiment [2], the inhibition at 0.1 µM amounted to 78.2%.
The same measure, in the same setting: next, `Nc1nc2cnc(N(CCN3CCOCC3)C(=O)Nc3cccnc3)nc2s1` [Example 44, 1-(2-aminothiazo[5,4-d]pyrimidin-5-yl)-1-[2-(4-morpholinyl)ethyl]-3-(pyridin-3-yl)urea]: 55.9%; `CC(=O)Nc1nc2cnc(N(CCN3CCOCC3)C(=O)Nc3cccnc3)nc2s1` [Example 45, 1-(2-acetamidothiazo[5,4-d]pyrimidin-5-yl)-1-[2-(4-morpholinyl)ethyl]-3-(pyridin-3-yl)urea]: 45.2%; `O=C(CCc1ccccc1)Nc1nc2cnc(N(CCN3CCOCC3)C(=O)Nc3cccnc3)nc2s1` [Example 46]: 67.9%.
For `O=C(NCc1ccccc1)Nc1nc2ncc(N(CCN3CCOCC3)C(=O)Nc3ccc(Br)c(F)c3)cc2s1` [Example 47, 1-[2-(3-benzylureido)thiazo[4,5-b]pyridin-6-yl]-1-[2-(4-morpholinyl)ethyl]-3-(4-bromo-3-fluorophenyl)urea], in experiment [2], the inhibition at 0.1 µM turned out to be 32.5%.
